# Reference: patent US12653858B2, “Herbal composition, preparation method thereof and method for preventing or treating respiratory disorder by administering the same” (priority 2021, dated 2026)
# How the values were obtained:
# ACE2 = ACE2 degradation in WI-38 cells (cycloheximide time course, BafA1 lysosome inhibition); format: cell-based, human; settings: WI-38 cells pretreated with BafA1 10 μM 30 min, then JGF 10 μg/mL 2 h
# Protocol: Actin was used as the internal control. […] Actin was used as the internal control.
# For example, it was examined whether JGF-induced ACE2 degradation is dependent on proteasome or lysosomal systems. Initially, the half-life of ACE2 in WI-38 cells was analyzed following treatment with cycloheximide (CHX), which is a ribosome inhibitor that blocks protein synthesis.
# [1] = test system: SARS-CoV-2 S-mediated membrane fusion; assay: SARS-CoV-2 spike-mediated cell-cell fusion (syncytium formation) assay; format: cell-based
SMILES,ACE2 level after JGF treatment with lysosome inhibitor (ACE2),Formation of syncytium [1]
CO/C1=C\C(C)=C\[C@@H](C)[C@@H](O)[C@@H](C)C/C(C)=C/C=C/[C@H](OC)[C@@H]([C@@H](C)[C@@H](O)[C@H](C)[C@@]2(O)C[C@@H](O)[C@H](C)[C@@H](C(C)C)O2)OC1=O [BafA1],recovered the ACE2 level,
CN(C)C(=O)COC(=O)Cc1ccc(OC(=O)c2ccc(NC(=N)N)cc2)cc1 [camostat],,inhibition of syncytium formation
